In patent US20150105252A1, “SUBSTITUTED PYRAZOLES AS HERBICIDES” (E I DU PONT DE NEMOURS AND COMPANY, priority 2013, published 2015):

How the values were obtained:
[1] = system: crabgrass, large; assay: Test C preemergence; type: in vivo, Digitaria sanguinalis; details: for Plant response rating (scale of 0 to 100), Crabgrass, Large: Preemergence; for Crabgrass, Large plant response rating / Plant response rating, Crabgrass, Large: preemergence; for Plant response rating, Crabgrass, Large: scale 0 to 100, 0 = no effect, 100 = complete control
Outline: (§1)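 Pre- and postemergence greenhouse screen; vehicle was a non-phytotoxic solvent mix with surfactant. Preemergence: treatment applied right after sowing into loam and sand. Postemergence: treated at 1–4 leaves. Visual rating at 13–15 days, 100 = complete control.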

[2] = system: morningglory; assay: Test C preemergence; type: in vivo, Ipomoea coccinea; details: for Plant response rating (scale of 0 to 100), Morningglory: Preemergence; for Morningglory plant response rating / Plant response rating, Morningglory: preemergence; for Plant response rating, Morningglory: scale 0 to 100, 0 = no effect, 100 = complete control
Outline: as §1

[3] = system: soybean; assay: Test C postemergence; type: in vivo, Glycine max; details: for Plant response rating (scale of 0 to 100 where 0 is no effect and 100 is complete control), Soybean: Postemergence, 31 g ai/ha, visually evaluated after 13 to 15 days; for Soybean plant response rating / Plant response rating, Soybean: postemergence; for Soybean plant response rating: 62 g ai/ha, scale 0 to 100
Outline: as §1

[4] = system: oilseed rape; assay: Test C postemergence; type: in vivo, Brassica napus; details: for Plant response rating (scale of 0 to 100 where 0 is no effect and 100 is complete control), Oilseed Rape: Postemergence, 31 g ai/ha, visually evaluated after 13 to 15 days; for Oilseed Rape plant response rating / Plant response rating, Oilseed Rape: postemergence; for Oilseed Rape plant response rating: 62 g ai/ha, scale 0 to 100
Outline: as §1

[5] = system: johnsongrass; assay: Test C preemergence; type: in vivo, Sorghum halepense; details: for Plant response rating (scale of 0 to 100), Johnsongrass: Preemergence; for Johnsongrass plant response rating / Plant response rating, Johnsongrass: preemergence; for Plant response rating, Johnsongrass: scale 0 to 100, 0 = no effect, 100 = complete control
Outline: as §1

[6] = system: crabgrass, large; assay: Test C postemergence; type: in vivo, Digitaria sanguinalis; details: for Plant response rating (scale of 0 to 100 where 0 is no effect and 100 is complete control), Crabgrass, Large: Postemergence, 31 g ai/ha, visually evaluated after 13 to 15 days; for Crabgrass, Large plant response rating / Plant response rating, Crabgrass, Large: postemergence; for Crabgrass, Large plant response rating: 62 g ai/ha, scale 0 to 100
Outline: as §1

[7] = system: foxtail, giant; assay: Test A postemergence; type: in vivo, Setaria faberii
Outline: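 Visual injury ratings, 0 = no effect to 100 = complete control, taken about 10 days after treatment against untreated controls. Test chemicals, in a non-phytotoxic surfactant-containing solvent, were sprayed onto soil preemergence or onto one- to two-leaf plants (2–10 cm) postemergence, in loam–sand soil under greenhouse conditions.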

[8] = system: velvetleaf; assay: Test C postemergence; type: in vivo, Abutilon theophrasti; details: for Plant response rating (scale of 0 to 100 where 0 is no effect and 100 is complete control), Velvetleaf: Postemergence, 31 g ai/ha, visually evaluated after 13 to 15 days; for Velvetleaf plant response rating / Plant response rating, Velvetleaf: postemergence; for Velvetleaf plant response rating: 62 g ai/ha, scale 0 to 100
Outline: as §1

[9] = system: oilseed rape; assay: Test C preemergence; type: in vivo, Brassica napus; details: for Plant response rating (scale of 0 to 100), Oilseed Rape: Preemergence; for Oilseed Rape plant response rating / Plant response rating, Oilseed Rape: preemergence; for Plant response rating, Oilseed Rape: scale 0 to 100, 0 = no effect, 100 = complete control
Outline: as §1

[10] = system: waterhemp; assay: Test C postemergence; type: in vivo, Amaranthus rudis; details: for Plant response rating (scale of 0 to 100 where 0 is no effect and 100 is complete control), Waterhemp: Postemergence, 31 g ai/ha, visually evaluated after 13 to 15 days; for Waterhemp plant response rating / Plant response rating, Waterhemp: postemergence; for Waterhemp plant response rating: 62 g ai/ha, scale 0 to 100
Outline: as §1

[11] = system: blackgrass; assay: Test C preemergence; type: in vivo, Alopecurus myosuroides; details: for Plant response rating (scale of 0 to 100), Blackgrass: Preemergence; for Blackgrass plant response rating / Plant response rating, Blackgrass: preemergence; for Plant response rating, Blackgrass: scale 0 to 100, 0 = no effect, 100 = complete control
Outline: as §1

[12] = system: ducksalad; assay: Test B flood; type: in vivo, Heteranthera limosa; details: 250 g ai/ha, visual rating on 0 to 100 scale (0 no effect, 100 complete control), 13 to 15 days
Outline: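 Greenhouse assay lasting 13 to 15 days. Treatment was into water flooding pots 3 cm deep, at the 2-leaf stage, with that level sustained afterwards. Scores compare treated with control plants visually, 100 denoting complete control and 0 no effect; a dash marks no test result.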

[13] = 31 g ai/ha, visual rating, scale 0 to 100 (0 no effect, 100 complete control), 13 to 15 days
[14] = 62 g ai/ha, scale 0 to 100 (0 no effect, 100 complete control), 13 to 15 days
[15] = 125 g ai/ha, scale 0 to 100, 0 is no effect, 100 is complete control
[16] = 250 g ai/ha, scale 0 to 100 (0 no effect, 100 complete control)
[17] = 125 g ai/ha, scale 0 to 100, 0 no effect, 100 complete control
[18] = Postemergence, 500 g ai/ha, 0 to 100 scale (0 no effect, 100 complete control)
[19] = postemergence, 125 g ai/ha, about 10 days, visual rating on 0 to 100 scale (0 no effect, 100 complete control)
[20] = 250 g ai/ha, scale 0 to 100, 0 is no effect, 100 is complete control

Compound: CCc1cc(C(=O)NOC(C)C)nn1Cc1ccnc(OC(F)F)c1 [Compound 126]
- Plant response rating (scale of 0 to 100), Crabgrass, Large ([1]; 250 g ai/ha): 100
- Crabgrass, Large plant response rating [1, 13]: 90
- Crabgrass, Large plant response rating [1, 14]: 100
- Crabgrass, Large plant response rating [1, 15]: 100
- Plant response rating (scale of 0 to 100), Morningglory ([2]; 250 g ai/ha): 100
- Morningglory plant response rating [2, 13]: 55
- Morningglory plant response rating [2, 14]: 70
- Morningglory plant response rating [2, 15]: 98
- Plant response rating (scale of 0 to 100 where 0 is no effect and 100 is complete control), Soybean [3]: 40
- Soybean plant response rating [3]: 45
- Plant response rating, Soybean [3, 16]: 65
- Plant response rating, Soybean [3, 17]: 55
- Plant response rating (scale of 0 to 100 where 0 is no effect and 100 is complete control), Oilseed Rape [4]: 45
- Oilseed Rape plant response rating [4]: 50
- Plant response rating, Oilseed Rape [4, 16]: 70
- Plant response rating, Oilseed Rape [4, 17]: 60
- Plant response rating (scale of 0 to 100), Johnsongrass ([5]; 250 g ai/ha): 98
- Johnsongrass plant response rating [5, 13]: 40
- Johnsongrass plant response rating [5, 14]: 85
- Johnsongrass plant response rating [5, 15]: 95
- Plant response rating (scale of 0 to 100 where 0 is no effect and 100 is complete control), Crabgrass, Large [6]: 5
- Crabgrass, Large plant response rating [6]: 10
- Plant response rating, Crabgrass, Large [6, 16]: 60
- Plant response rating, Crabgrass, Large [6, 17]: 15
- Foxtail, Giant plant response rating [7, 18]: 90
- Foxtail, Giant plant response rating [7, 19]: 90
- Plant response rating (scale of 0 to 100 where 0 is no effect and 100 is complete control), Velvetleaf [8]: 30
- Velvetleaf plant response rating [8]: 25
- Plant response rating, Velvetleaf [8, 16]: 70
- Plant response rating, Velvetleaf [8, 17]: 35
- Plant response rating (scale of 0 to 100), Oilseed Rape ([9]; 250 g ai/ha): 100
- Oilseed Rape plant response rating [9, 13]: 85
- Oilseed Rape plant response rating [9, 14]: 100
- Oilseed Rape plant response rating [9, 15]: 100
- Plant response rating (scale of 0 to 100 where 0 is no effect and 100 is complete control), Waterhemp [10]: 40
- Waterhemp plant response rating [10]: 50
- Plant response rating, Waterhemp [10, 16]: 90
- Plant response rating, Waterhemp [10, 17]: 70
- Plant response rating (scale of 0 to 100), Blackgrass ([11]; 250 g ai/ha): 90
- Blackgrass plant response rating [11, 13]: 55
- Blackgrass plant response rating [11, 14]: 60
- Blackgrass plant response rating [11, 15]: 90
- Plant response rating, Ducksalad [12]: 95

Compound: CCCNC(=O)c1cc(OCC)n(Cc2ccnc(OC(F)F)c2)n1 [Compound 136]
- Crabgrass, Large plant response rating [1, 13]: 100
- Crabgrass, Large plant response rating [1, 14]: 100
- Plant response rating, Crabgrass, Large ([1]; 125 g ai/ha, 13 to 15 days): 100
- Crabgrass, Large plant response rating [1, 20]: 100
- Morningglory plant response rating [2, 13]: 100
- Morningglory plant response rating [2, 14]: 100
- Plant response rating, Morningglory ([2]; 125 g ai/ha, 13 to 15 days): 100
- Morningglory plant response rating [2, 20]: 100
- Plant response rating (scale of 0 to 100 where 0 is no effect and 100 is complete control), Soybean [3]: 90
- Soybean plant response rating [3]: 70
- Plant response rating, Soybean [3, 16]: 95
- Plant response rating, Soybean [3, 17]: 95
- Plant response rating (scale of 0 to 100 where 0 is no effect and 100 is complete control), Oilseed Rape [4]: 60
- Oilseed Rape plant response rating [4]: 60
- Plant response rating, Oilseed Rape [4, 16]: 85
- Plant response rating, Oilseed Rape [4, 17]: 70
- Johnsongrass plant response rating [5, 13]: 60
- Johnsongrass plant response rating [5, 14]: 85
- Plant response rating, Johnsongrass ([5]; 125 g ai/ha, 13 to 15 days): 98
- Johnsongrass plant response rating [5, 20]: 100
- Plant response rating (scale of 0 to 100 where 0 is no effect and 100 is complete control), Crabgrass, Large [6]: 5
- Crabgrass, Large plant response rating [6]: 5
- Plant response rating, Crabgrass, Large [6, 16]: 40
- Plant response rating, Crabgrass, Large [6, 17]: 40
- Foxtail, Giant plant response rating [7, 18]: 100
- Foxtail, Giant plant response rating [7, 19]: 90
- Plant response rating (scale of 0 to 100 where 0 is no effect and 100 is complete control), Velvetleaf [8]: 30
- Velvetleaf plant response rating [8]: 55
- Plant response rating, Velvetleaf [8, 16]: 85
- Plant response rating, Velvetleaf [8, 17]: 60
- Oilseed Rape plant response rating [9, 13]: 100
- Oilseed Rape plant response rating [9, 14]: 100
- Plant response rating, Oilseed Rape ([9]; 125 g ai/ha, 13 to 15 days): 100
- Oilseed Rape plant response rating [9, 20]: 100
- Plant response rating (scale of 0 to 100 where 0 is no effect and 100 is complete control), Waterhemp [10]: 60
- Waterhemp plant response rating [10]: 70
- Plant response rating, Waterhemp [10, 16]: 90
- Plant response rating, Waterhemp [10, 17]: 75
- Blackgrass plant response rating [11, 13]: 85
- Blackgrass plant response rating [11, 14]: 90
- Plant response rating, Blackgrass ([11]; 125 g ai/ha, 13 to 15 days): 90
- Blackgrass plant response rating [11, 20]: 90
- Plant response rating, Ducksalad [12]: 80

Compound: CCOc1cc(C(=O)NCC(F)(F)F)nn1Cc1ccnc(OC(F)F)c1 [Compound 128]
- Plant response rating (scale of 0 to 100), Crabgrass, Large ([1]; 250 g ai/ha): 100
- Crabgrass, Large plant response rating [1, 13]: 100
- Crabgrass, Large plant response rating [1, 14]: 95
- Plant response rating, Crabgrass, Large ([1]; 125 g ai/ha, 13 to 15 days): 100
- Plant response rating (scale of 0 to 100), Morningglory ([2]; 250 g ai/ha): 100
- Morningglory plant response rating [2, 13]: 75
- Morningglory plant response rating [2, 14]: 70
- Plant response rating, Morningglory ([2]; 125 g ai/ha, 13 to 15 days): 98
- Plant response rating (scale of 0 to 100 where 0 is no effect and 100 is complete control), Soybean [3]: 65
- Soybean plant response rating [3]: 95
- Plant response rating, Soybean [3, 16]: 98
- Plant response rating, Soybean [3, 17]: 95
- Plant response rating (scale of 0 to 100 where 0 is no effect and 100 is complete control), Oilseed Rape [4]: 50
- Oilseed Rape plant response rating [4]: 60
- Plant response rating, Oilseed Rape [4, 16]: 90
- Plant response rating, Oilseed Rape [4, 17]: 60
- Plant response rating (scale of 0 to 100), Johnsongrass ([5]; 250 g ai/ha): 98
- Johnsongrass plant response rating [5, 13]: 45
- Johnsongrass plant response rating [5, 14]: 85
- Plant response rating, Johnsongrass ([5]; 125 g ai/ha, 13 to 15 days): 95
- Plant response rating (scale of 0 to 100 where 0 is no effect and 100 is complete control), Crabgrass, Large [6]: 5
- Crabgrass, Large plant response rating [6]: 5
- Plant response rating, Crabgrass, Large [6, 16]: 85
- Plant response rating, Crabgrass, Large [6, 17]: 30
- Foxtail, Giant plant response rating [7, 18]: 100
- Foxtail, Giant plant response rating [7, 19]: 100
- Plant response rating (scale of 0 to 100 where 0 is no effect and 100 is complete control), Velvetleaf [8]: 10
- Velvetleaf plant response rating [8]: 15
- Plant response rating, Velvetleaf [8, 16]: 65
- Plant response rating, Velvetleaf [8, 17]: 35
- Plant response rating (scale of 0 to 100), Oilseed Rape ([9]; 250 g ai/ha): 100
- Oilseed Rape plant response rating [9, 13]: 100
- Oilseed Rape plant response rating [9, 14]: 100
- Plant response rating, Oilseed Rape ([9]; 125 g ai/ha, 13 to 15 days): 100
- Plant response rating (scale of 0 to 100 where 0 is no effect and 100 is complete control), Waterhemp [10]: 60
- Waterhemp plant response rating [10]: 65
- Plant response rating, Waterhemp [10, 16]: 95
- Plant response rating, Waterhemp [10, 17]: 70
- Plant response rating (scale of 0 to 100), Blackgrass ([11]; 250 g ai/ha): 90
- Blackgrass plant response rating [11, 13]: 50
- Blackgrass plant response rating [11, 14]: 90
- Plant response rating, Blackgrass ([11]; 125 g ai/ha, 13 to 15 days): 90
- Plant response rating, Ducksalad [12]: 95
